Legend:
Mus musculus [1] = test: Tested for the ability to inhibit the NMDA induced (250mg/Kg, intraperitoneally) seizures in male CF-1 mice given 15 min prior to NMDA (intracerebroventricularly); assay type: functional
Mus musculus [2] = test: Tested for the ability to inhibit the NMDA induced (250mg/Kg, intraperitoneal) seizures in male CF-1 mice when given 30 min prior to NMDA (intraperitoneal); assay type: functional; conditions: ip
Glutamate NMDA receptor = test: Tested for the ability to inhibit the specific binding of [3H]-CGS- 19755 to NMDA recognition sites on rat brain membranes; assay type: cell membranes, Membrane
Rattus norvegicus [3] = test: Tested for the paradigm of drug-discrimination assay in rats by intraperitoneal administration; assay type: functional; conditions: ip
Rodentia sp. = test: Tested for the ability to inhibit the cocaine-induced seizures in rodents; assay type: functional
Rattus norvegicus [4] = test: Tested for the paradigm of drug-discrimination assay in rats by intraperitoneal administration.; assay type: functional; conditions: ip
Mus musculus [5] = test: Tested for the ability to inhibit the […] induced seizures (ip administration); assay type: functional
Rattus norvegicus [6] = test: Tested for the paradigm of drug-discrimination assay in rat by intraperitoneal administration; assay type: functional; conditions: ip
Mus musculus [7] = organism: Mus musculus; test: Tested for the ability to inhibit the maximal electroshock induced seizures in mice; assay type: functional
[8] = Tested for the lethal dose by intraperitoneal administration; assay type: ADME; conditions: mouse, ip
Rattus norvegicus [9] = test: Tested for the paradigm of drug-discrimination assay (NPC 17742 (4 mg/Kg; i.p.) from saline) in rat by intraperitoneal administration; assay type: functional; conditions: ip
Mus musculus [10] = organism: Mus musculus; test: Tested for the ability to inhibit the pentylenetetrazole seizures in mice; assay type: functional
Rattus norvegicus [11] = test: Tested for the paradigm of drug-discrimination assay (NPC 17742 (4 mg/Kg) from saline) in rats by intraperitoneal administration; assay type: functional; conditions: ip

Structure (SMILES)	IC50 (Glutamate NMDA receptor) [µM]	ED50 (Mus musculus [1]) [nmol]	ED50 (Mus musculus [2]) [mg/kg]	other results
O=C(O)[C@@H]1C[C@H](CP(=O)(O)O)CCN1 (single isomer, unassigned) [SELFOTEL]	0.087	0.19	2.6	ED50 (Rattus norvegicus [3]): 2.3 mg/kg
CC(=CC(N)C(=O)O)CP(=O)(O)O (stereo not given) [CGP-37849]	–	–	–	ED50 (Rodentia sp.): 0.1 mg/kg; ED50 (Rattus norvegicus [4]): 0.8 mg/kg
N[C@H](C[C@H]1CCCCC1CCP(=O)(O)O)C(=O)O (single isomer, unassigned)	0.27	0.28	1.05	ED50 (Mus musculus [5]): 4.5 mg/kg; ED50 (Rattus norvegicus [6]): 2.1 mg/kg; ED50 (Mus musculus [7]): 13 mg/kg; LD50 [8]: > 1000 mg/kg; ED50 (Rattus norvegicus [9]): 1.9 mg/kg; ED50 (Mus musculus [10]): 4.5 mg/kg
NC(CC1CCCCC1CCP(=O)(O)O)C(=O)O (stereo not given)	–	–	–	ED50 (Rattus norvegicus [11]): 8.9 mg/kg; ED50 (Rattus norvegicus [4]): 18.1 mg/kg
O=C(O)[C@H]1CN(C/C=C/P(=O)(O)O)CCN1 [MIDAFOTEL]	–	–	–	ED50 (Rattus norvegicus [4]): 0.8 mg/kg

More lines, main results first:

IC50 (Glutamate NMDA receptor) [µM]	Structure (SMILES)	ED50 (Mus musculus [1]) [nmol]	ED50 (Mus musculus [2]) [mg/kg]	other results
28	NC(C[C@@H]1CCCC[C@H]1CCP(=O)(O)O)C(=O)O (stereo in doubt; (+))	49	–	–
4.05	NC(C[C@@H]1CCCC[C@H]1CCP(=O)(O)O)C(=O)O (stereo in doubt; (-))	20	> 100	–
2.6	N[C@@H](C[C@H]1CCCC[C@H]1CCP(=O)(O)O)C(=O)O	44.6	40	–
2.4	N[C@@H](C[C@@H]1CCCC[C@@H]1CCP(=O)(O)O)C(=O)O	8.5	32	–
0.19	O=C(O)C1CN(CCCP(=O)(O)O)CCN1 (racemic)	1.2	2.2	–
5.6	N[C@H](C[C@@H]1CCCC[C@@H]1CCP(=O)(O)O)C(=O)O	8.5	33	–

— ChEMBL document CHEMBL1127095, “Pharmacology of (2R, 4R, 5S)-2-amino-4,5-(1,2-cyclohexyl)-7-phosphonoheptanoic acid (NPC 17742); a selective, systemically active, competitive NMDA antagonist” (Bioorg Med Chem Lett, 1993)
